Data reported in ChEMBL document CHEMBL1201862, “PubChem BioAssay data set” (2004).
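How tested: cells in 96-well plates exposed to compound for 48 hours at five concentrations. GI50: concentration for 50% inhibition of growth.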 Calls of active or inactive are those of the source. Cut-off read from the data, not from the text of the source: active = GI50 up to about 1.1 µM and inactive = higher.

What was measured:
Assay in all cases: NCI-60 cell line screen, 48 h
EKVX = test system: EKVX
Hs-578T = test system: Hs-578T
SNB-19 = test system: SNB-19
NCI-H226 = test system: NCI-H226
TK-10 = test system: TK-10
HT-29 = test system: HT-29
NCI-H23 = test system: NCI-H23
SN12C = test system: SN12C
OVCAR-8 = test system: OVCAR-8
RXF 393 = test system: RXF 393
UACC-62 = test system: UACC-62
IGROV-1 = test system: IGROV-1
RPMI-8226 = test system: RPMI-8226
HCC 2998 = test system: HCC 2998
MDA-MB-435 = test system: MDA-MB-435
DU-145 = test system: DU-145
NCI-H460 = test system: NCI-H460
NCI-H522 = test system: NCI-H522

SMILES	GI50 (EKVX)	GI50 (Hs-578T)	GI50 (SNB-19)	GI50 (NCI-H226)	GI50 (TK-10)	GI50 (HT-29)	GI50 (NCI-H23)	GI50 (SN12C)	GI50 (OVCAR-8)	GI50 (RXF 393)	GI50 (UACC-62)	GI50 (IGROV-1)	GI50 (RPMI-8226)	GI50 (HCC 2998)	GI50 (MDA-MB-435)	GI50 (DU-145)	GI50 (NCI-H460)	GI50 (NCI-H522)
CCOP(=O)(OCC)C(=C1C=C(C(C)(C)C)C(=O)C(C(C)(C)C)=C1)P(=O)(OCC)OCC	> 7.76 µM (inactive)	> 10 µM (inactive)	> 10 µM (inactive)	> 10 µM (inactive)	3.27 µM (inactive)	> 10 µM (inactive)	> 10 µM (inactive)	> 10 µM (inactive)	> 10 µM (inactive)	4.97 µM (inactive)	> 10 µM (inactive)	> 10 µM (inactive)	5.08 µM (inactive)	> 10 µM (inactive)	> 5.24 µM (inactive)	> 10 µM (inactive)	> 10 µM (inactive)	2.27 µM (inactive)
Clc1ccc(CCNC2(c3cc4ccccc4s3)CCCCC2)cc1Cl	26.1 µM (inactive)	42.5 µM (inactive)	30.5 µM (inactive)	17.3 µM (inactive)	20.8 µM (inactive)	10 µM (inactive)	26.5 µM (inactive)	33.7 µM (inactive)	31.9 µM (inactive)	17.7 µM (inactive)	17.7 µM (inactive)	40.8 µM (inactive)	11.5 µM (inactive)	7.74 µM (inactive)	41.4 µM (inactive)	32.9 µM (inactive)	14.8 µM (inactive)	17.5 µM (inactive)
Cc1nc2ccccc2n1CCc1nc2ccccc2s1	7.23 µM (inactive)	53.6 µM (inactive)	> 100 µM (inactive)	0.857 µM (active)	45.4 µM (inactive)	21.1 µM (inactive)	30 µM (inactive)	> 100 µM (inactive)	41.3 µM (inactive)	50 µM (inactive)	60.8 µM (inactive)	> 100 µM (inactive)	15 µM (inactive)	38.3 µM (inactive)	57.8 µM (inactive)	70.5 µM (inactive)	31.2 µM (inactive)	15.6 µM (inactive)
C=C1c2nc3ccccc3n2C=C(c2ccc(C)cc2)N1c1ccc(C)cc1	46.6 µM (inactive)	> 100 µM (inactive)	> 100 µM (inactive)	7.08 µM (inactive)	> 100 µM (inactive)	37.9 µM (inactive)	> 59.6 µM (inactive)	> 100 µM (inactive)	18.9 µM (inactive)	25.9 µM (inactive)	> 83.8 µM (inactive)	> 67.1 µM (inactive)	21.4 µM (inactive)	22.5 µM (inactive)	11.6 µM (inactive)	> 83.4 µM (inactive)	42.3 µM (inactive)	17.2 µM (inactive)
COC(=O)c1cc2c(cc1Cl)Sc1nnc(Nc3ccccc3)n1S2(=O)=O	7.1 µM (inactive)	3.1 µM (inactive)	2.28 µM (inactive)	2.45 µM (inactive)	2.69 µM (inactive)	2.4 µM (inactive)	2.34 µM (inactive)	6.31 µM (inactive)	3.58 µM (inactive)	2.21 µM (inactive)	3.99 µM (inactive)	0.351 µM (active)	1.62 µM (inactive)	1.91 µM (inactive)	7.48 µM (inactive)	1.66 µM (inactive)	10 µM (inactive)	1.68 µM (inactive)
[O-][n+]1onc2c1/C(=N/O)CCC2	> 100 µM (inactive)	> 100 µM (inactive)	> 100 µM (inactive)	> 100 µM (inactive)	> 100 µM (inactive)	> 100 µM (inactive)	> 100 µM (inactive)	> 100 µM (inactive)	> 100 µM (inactive)	> 100 µM (inactive)	> 100 µM (inactive)	> 100 µM (inactive)	> 100 µM (inactive)	> 100 µM (inactive)	> 100 µM (inactive)	> 100 µM (inactive)	> 100 µM (inactive)	> 100 µM (inactive)
Cn1c(=O)c2c(nc3n(Cc4ccccc4)c(=O)c(NCCCBr)cn23)n(C)c1=O	43.6 µM (inactive)	27.3 µM (inactive)	64.4 µM (inactive)	31.5 µM (inactive)	38.5 µM (inactive)	> 100 µM (inactive)	> 100 µM (inactive)	> 100 µM (inactive)	84.9 µM (inactive)	71 µM (inactive)	> 100 µM (inactive)	46.7 µM (inactive)	> 100 µM (inactive)	> 100 µM (inactive)	> 100 µM (inactive)	> 100 µM (inactive)	> 100 µM (inactive)	54.3 µM (inactive)
CCN(CC)CCCNc1c2cc(OC)ccc2nc2cccc([N+](=O)[O-])c12	0.163 µM (active)	0.138 µM (active)	0.286 µM (active)	0.204 µM (active)	0.195 µM (active)	0.0456 µM (active)	0.0746 µM (active)	0.11 µM (active)	0.0904 µM (active)	0.0557 µM (active)	0.166 µM (active)	0.102 µM (active)	0.0535 µM (active)	0.0655 µM (active)	0.0995 µM (active)	0.0551 µM (active)	0.0184 µM (active)	0.00658 µM (active)
